# Measurements as given in patent US10752612B2, “PLK4 inhibitors” (LUDWIG INSTITUTE FOR CANCER RESEARCH LTD, priority 2015, dated 2020).
# Biological target: T1, human Plk4 kinase domain (aa 2-275) (Homo sapiens, UniProt O00444)
# T1 construct: purified 6×His-tagged human Plk4 kinase domain (aa 2-275); 6xHis; made in house; host or cells: E. coli
# T1 sequence (O00444 2-275): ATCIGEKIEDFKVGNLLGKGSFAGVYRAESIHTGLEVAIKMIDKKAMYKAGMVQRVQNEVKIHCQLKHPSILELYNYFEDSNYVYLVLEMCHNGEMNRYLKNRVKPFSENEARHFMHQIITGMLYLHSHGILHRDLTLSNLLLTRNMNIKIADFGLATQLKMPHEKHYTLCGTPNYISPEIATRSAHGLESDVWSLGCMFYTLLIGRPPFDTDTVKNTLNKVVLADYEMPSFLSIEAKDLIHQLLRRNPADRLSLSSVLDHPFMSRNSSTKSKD
# Test: Plk4 kinase assay (ADP-Glo)
# Assay type: biochemical
# Settings: Table 1
# Procedure, shortened: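 Enzyme at 2.5-10 nM final, pH 8.0, reacted 4-16 hours at 25° C; ADP generation read by ADP-Glo luminescence. Ki derived from IC50 by Cheng-Prusoff or, for tight binders, Copeland formalism.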
row,SMILES,IC50 [nM]
1,CNC(=O)Nc1ccc(Sc2nc(Nc3cc(C)[nH]n3)c(C)c(N3CCOCC3)n2)cc1,< 1000
2,COc1c(Nc2cc(C)[nH]n2)nc(Sc2ccc(S(=O)(=O)C(F)c3cccc([N+](=O)[O-])c3F)cc2F)nc1N1CCN(CCN(C)C)CC1 (centres unmarked),< 1000
3,COc1c(Nc2cc(C)[nH]n2)nc(Sc2ccc(S(=O)(=O)C(C)(C)c3c(F)c(F)cc(F)c3F)cc2F)nc1N1CCC(OC)CC1,< 1000
4,COc1c(Nc2cc(C)[nH]n2)nc(Sc2ccc(/C=C/c3cccc([N+](=O)[O-])c3F)cc2F)nc1N1CCOCC1,< 1000
5,COc1c(Nc2cc(C)[nH]n2)nc(Sc2ccc(S(=O)(=O)Cc3ccccc3)cc2Cl)nc1N1CCN(CCN(C)C)CC1,< 1000
6,CCOc1c(Nc2cc(C)[nH]n2)nc(Sc2ccc(NC(=O)C3CCCC3)cc2)nc1N(CC)CC,> 1000
7,COc1c(Nc2cc(C)[nH]n2)nc(Sc2ccc(C(C)=O)cc2)nc1N1CCN(CCN(C)C)CC1,< 1000
8,CCS(=O)(=O)c1ccc(Sc2nc(Nc3cc(C)[nH]n3)c(OC)c(C3CCN(CCN(C)C)CC3)n2)cc1,< 1000
9,COC(=O)CC1CCN(c2nc(Sc3ccc(NC(C)=O)cc3)nc(Nc3cc(C)[nH]n3)c2OC)CC1,< 1000
10,COc1c(Nc2cc(C)[nH]n2)nc(Sc2ccc(NC(C)=O)cc2)nc1N1CCN(C(=O)N(C)C)CC1,< 1000
11,COc1c(Nc2cc(C)[nH]n2)nc(Sc2ccc(NC(N)=O)cc2)nc1N1CCN(CCN(C)C)CC1,< 1000
12,COCCC(=O)N1CCN(c2nc(Sc3ccc(NC(=O)C4CC4)cc3)nc(Nc3cc(C)[nH]n3)c2OC)CC1,< 1000
13,COCCN1CCN(c2nc(Sc3ccc(NC(=O)C4CC4)cc3)nc(Nc3cc(C)[nH]n3)c2OC)CC1,< 1000
14,COc1c(Nc2cc(C)[nH]n2)nc(Sc2ccc(NC(C)=O)cc2)nc1N1CCN(CCN(C)OC)CC1,< 1000
15,Cc1cc(Nc2cc(C)[nH]n2)nc(Sc2ccc(NC(=O)C3CC3)cc2)n1,< 1000
16,COc1c(Nc2cc(C)[nH]n2)nc(Sc2ccc(NC(C)=O)cc2)nc1N1CCN(C)CC1,< 1000
17,CCS(=O)(=O)c1ccc(Sc2nc(Nc3cc(C)[nH]n3)c(OC)c(N3CCC(CCN(C)C)CC3)n2)c(F)c1,< 1000
18,Cc1cc(Cc2nc(Sc3ccc(NC(=O)C4CCCC4)cc3)nc(N3CCN(CCN(C)C)CC3)c2C)n[nH]1,< 1000
19,COc1c(Nc2cc(C)[nH]n2)nc(Sc2ccc(NC(C)=O)cc2)nc1C1=CCN(CC(=O)N(C)C)CC1,< 1000
20,CC(=O)Nc1ccc(Sc2nc(Nc3cc(C)[nH]n3)c(C)c(N3CCN(C(=O)C(C)C)CC3)n2)cc1,< 1000

row,SMILES,IC50 [nM]
1,CC(=O)Nc1ccc(Sc2nc(Nc3cc(C)[nH]n3)c(C)c(N3CCC(O)CC3C)n2)cc1 (centres unmarked),< 1000
2,Cc1cc(Nc2nc(Sc3ccc(NC(=O)C4CC4)cc3)nc(N3CCN(C(C)C)CC3)c2C)n[nH]1,< 1000
3,CSc1nc(Nc2cc(C)[nH]n2)c(C)c(N2CCOCC2)n1,< 1000
4,CCc1cc(Nc2nc(Sc3ccc(NC(=O)C4CC4)cc3)nc(N3CCN(C)CC3)c2C)n[nH]1,> 1000
5,CCOc1c(Nc2cc(C)[nH]n2)nc(Sc2ccc(NC(=O)C3CCCC3)cc2)nc1N1CCN(C(=O)COC)CC1,100 to 1000
6,COc1c(Nc2cc(C)[nH]n2)nc(Sc2ccc(S(=O)(=O)Cc3cccc(OCc4ccccc4)c3)cc2)nc1N1CCN(CCN(C)C)CC1,< 1000
7,COc1c(Nc2cc(C)[nH]n2)nc(Sc2ccc(S(=O)(=O)N(C)C)cc2)nc1N1CCN(CCN(C)C)CC1,< 1000
8,COc1c(Nc2cc(C)[nH]n2)nc(Sc2ccc(NC(C)=O)cc2)nc1N1CCN(CCNC(N)=O)CC1,< 1000
9,COc1c(Nc2cc(C)[nH]n2)nc(Sc2ccc(S(=O)(=O)Cc3cccc([N+](=O)[O-])c3O)cc2)nc1N1CCN(CCN(C)C)CC1,< 1000
10,COC(=O)c1ccccc1CS(=O)(=O)c1ccc(Sc2nc(Nc3cc(C)[nH]n3)c(OC)c(N3CCN(CCN(C)C)CC3)n2)cc1,< 1000
11,CCN(CC)c1nc(Sc2ccc(S(=O)(=O)Cc3ccccc3)cc2)nc(Nc2cc(C)[nH]n2)c1OC,< 1000
12,CCOc1c(Nc2cc(C)[nH]n2)nc(Sc2ccc(NC(C)=O)cc2)nc1N1CCN(C(C)=O)CC1,100 to 1000
13,COc1c(Nc2cc(C)[nH]n2)nc(Sc2ccc(S(=O)(=O)C(F)c3cccc([N+](=O)[O-])c3F)cc2F)nc1N1CCOCC1 (centres unmarked),< 1000
14,Cc1cc(Nc2nc(Sc3ccc(NC(=O)C4CC4)cc3)nc(NCCN(C)C)c2C)n[nH]1,< 1000
15,COc1c(Nc2cc(C)[nH]n2)nc(Sc2ccc(NC(C)=O)cc2)nc1N1CCN(C2CCN(C)CC2)CC1,< 1000
16,COc1c(Nc2cc(C)[nH]n2)nc(Sc2ccc(NC(C)=O)cc2)nc1N1CCN(C(=O)C(C)C)CC1,< 1000
17,CCN1CCN(c2nc(Sc3ccc(NC(C)=O)cc3)nc(Nc3cc(C)[nH]n3)c2C)CC1,< 1000
18,COCCN1CCN(c2nc(Sc3ccc(NC(=O)C4CCCC4)cc3)nc(Cc3cc(C)[nH]n3)c2C)CC1,< 1000
19,COc1c(Nc2cc(C)[nH]n2)nc(Sc2ccc(NC(=O)C3CC3)cc2)nc1N1CCN(C(C)(C)C)CC1,> 1000
20,COc1c(Nc2cc(C)[nH]n2)nc(Sc2ccc(NC(C)=O)cc2)nc1N1CCN(CCCN(C)C)CC1,< 1000

row,SMILES,IC50 [nM]
1,CCN(C)c1nc(Sc2ccc(NC(C)=O)cc2)nc(Nc2cc(C)[nH]n2)c1C,< 1000
2,COc1c(Nc2cc(C)[nH]n2)nc(Sc2ccc(S(=O)(=O)C(C)(C)c3cccc([N+](=O)[O-])c3F)cc2F)nc1N1CCN(CCNC(=O)C(F)(F)F)CC1,< 1000
3,COc1c(Nc2cc(C)[nH]n2)nc(Sc2ccc(NC(C)=O)cc2)nc1N1CCC(OCCN(C)C)CC1,100 to 1000
4,COCCNc1nc(Sc2ccc(NC(=O)C3CCCC3)cc2)nc(Nc2cc(C)[nH]n2)c1OC,< 1000
5,CCC1CCc2nc(Sc3ccc(NC(=O)C4CC4)cc3)nc(Nc3cc(C)[nH]n3)c21 (centres unmarked),< 1000
6,CCOc1c(Nc2cc(C)[nH]n2)nc(Sc2ccc(S(=O)(=O)CC)cc2)nc1N1CCC(CCN(C)C)CC1,< 1000
7,CC(=O)Nc1ccc(Sc2nc(Nc3cc(C)[nH]n3)c(C)c(N3CC=CCC3)n2)cc1,< 1000
8,CCN(c1nc(Sc2ccc(NC(C)=O)cc2)nc(Nc2cc(C)[nH]n2)c1C)C(C)C,< 1000
9,CCOc1c(Nc2cc(C)[nH]n2)nc(Sc2ccc(NC(C)=O)cc2)nc1N1CCN(CCN(C)C)CC1,100 to 1000
10,COc1c(Nc2cc(C)[nH]n2)nc(Sc2ccc(NC(C)=O)cc2)nc1N1CCN(CCNC(=N)N)CC1,< 1000
11,COc1c(Nc2cc(C)[nH]n2)nc(Sc2ccc(S(=O)(=O)Cc3ccccc3)cc2)nc1N1CCN(C2CCNCC2)CC1,< 1000
12,COc1c(Nc2cc(C)[nH]n2)nc(Sc2ccc(S(=O)(=O)Cc3cccc([N+](=O)[O-])c3F)cc2)nc1N1CCC(O)CC1,< 1000
13,COc1c(Nc2cc(C)[nH]n2)nc(Sc2ccc(NC(C)=O)cc2)nc1N1CCN(CCN(C)C)C(C)C1 (centres unmarked),< 1000
14,COc1c(Nc2cc(C)[nH]n2)nc(Sc2ccc(NC(C)=O)cc2)nc1N1C2CCC1CC(O)C2 (centres unmarked),< 1000
15,Cc1cc(Nc2nc(Sc3ccc([N+](=O)[O-])cc3)nc3c2CCC32CCNCC2)n[nH]1,< 1000
16,COc1c(Nc2cc(C)[nH]n2)nc(Sc2ccc(S(=O)(=O)Cc3ccccc3)cc2)nc1N1CC2CCC(C1)O2,< 1000
17,CC(=O)Nc1ccc(Sc2nc(N3CCC(O)CC3)nc(Nc3cc(C)[nH]n3)c2Cl)cc1,< 1000
18,COc1c(Nc2cc(C)[nH]n2)nc(Sc2ccc(C(=O)N(C)C)cc2)nc1N1CCN(CCN(C)C)CC1,< 1000
19,CCOc1c(Nc2cc(C)[nH]n2)nc(Sc2ccc(NC(=O)C3CC3)cc2)nc1N1CCN(C2CCNCC2)CC1,100 to 1000
